Laboratory results from PMC11131246, “Molecular determinants for brain targeting by peptides: a meta-analysis approach with experimental validation” (Fluids and Barriers of the CNS, 2024).
Where two headings read alike, the source gives them in different places. Residues, ends and D or L forms follow the SMILES beside them. No end group written: not given here. *: point of attachment. NODAGA = O=C(O)CN1CCN(CC(=O)O)CCN(C(CCC(=O)*)C(=O)O)CC1

Legend:
[1] = Cytotoxicity, CellTiter-Blue cell viability assay; assay type: cell-based; settings: human
Procedure: (§1) Peptide cytotoxicity was determined using the CellTiter-Blue® cell viability assay, following a described protocol. Briefly, all cell lines were carefully harvested with trypsin–EDTA and seeded 10.000–20.000 cells/100 μL into 96-well clear flat-bottomed polystyrene plates (Corning, USA) for 24 h. After medium removal, cells were washed twice with 1X PBS, and 100 µL of previously diluted peptides (range from 0.05–100.0 µM) in the respective medium were added to cells. Then, after 24 h, cells were washed twice with 1X PBS and 20 µL of CellTiter-Blue® Reagent (diluted in 100 µL of medium) was added to each well and incubated for 3 h in culturing conditions. The fluorescence intensity was measured using Varioskan™ LUX multimode microplate reader.
(§2) IC50 values were determined using GraphPad Prism 7.0 software using a log(inhibitor) versus normalized response. Experiments were performed in triplicates on different days using three independently grown cell cultures.

[2] = Cytotoxicity, CellTiter-Blue cell viability assay; assay type: cell-based; settings: human; remark: listed apart in the source
Procedure: as §1, §2

[3] = Cytotoxicity, CellTiter-Blue cell viability assay; assay type: cell-based; settings: human; remark: listed apart in the source
Procedure: as §1, §2

[4] = Cytotoxicity, CellTiter-Blue cell viability assay; assay type: cell-based; settings: human; remark: listed apart in the source
Procedure: as §1, §2

[5] = Cytotoxicity, CellTiter-Blue cell viability assay; assay type: cell-based; settings: human; remark: listed apart in the source
Procedure: as §1, §2

[6] = Biodistribution of 67Ga-radiolabeled peptides; design: species or system mouse; settings: female, in vivo, iv, 100 uCi, total radioactivity, mean ± SD, n = 3; for tissue uptake at 1 h / tissue uptake at 2 min: CD1, mouse, i.v. tail vein; for tissue uptake at 2 min: 2 min post injection
Procedure: All animal experiments were performed in compliance with national and EU legislation for good practices on laboratory animal science. The animals were housed in a temperature and humidity-controlled environment with a 12 h light/12 h dark schedule. Biodistribution of radiolabeled peptides was performed on 7 weeks old CD1 female mice.
Animals were intravenously injected into the tail vein with 100 µL of a 25 µM saline solution of the ^67Ga-peptide with a radioactivity around 100 µCi. The mice were euthanized by cervical dislocation at 2 min and 1 h after injection. The dose administered and the radioactivity in the euthanized animals was measured using a dose calibrator (Carpintec CRC-15W, Ramsey, USA). The difference between the radioactivity in the injected and the euthanized animals was assumed to be due to excretion. Brain and tissues of interest without previous perfusion were dissected, washed, and weighed, and their radioactivity was measured using a γ counter (Hidex AMG, Hidex, Turku, Finland). The uptake in the brain and tissues of interest was calculated and expressed as a percentage of injected radioactivity dose per gram of tissue (% ID/g).

[7] = Analytical RP-HPLC retention time (used as indication of hydrophobicity); assay type: physicochemical; settings: separate analytical RP-HPLC coupled to a γ-detector; 67Ga-NODA-GA labelled peptides

Question: Which IC50 at 24 h [1] does the source give for KYRSGAITIGY-NH2 [BBBpS_2] here?
Answer: > 100 µM

Question: What about the IC50 at 24 h [2] of the same molecule?
Answer: > 100 µM

Question: What about the IC50 at 24 h [3] of the same molecule?
Answer: > 100 µM

Question: And the IC50 at 24 h [4]?
Answer: > 100 µM

Question: What about the IC50 at 24 h [5] of the same molecule?
Answer: > 100 µM

Question: Which results are given for NRPDSAQFWLHH-NH2 [BBBpS_9]?
Answer: IC50 at 24 h [1]: > 100 µM; IC50 at 24 h [2]: > 100 µM; IC50 at 24 h [3]: > 100 µM; IC50 at 24 h [4]: > 100 µM; IC50 at 24 h [5]: > 100 µM

Question: With APWHLSSQYSRT-NH2 [BBBpS_4] as the molecule, how does the IC50 at 24 h [1] read?
Answer: > 100 µM

Question: What about the IC50 at 24 h [2] of the same molecule?
Answer: > 100 µM

Question: And the IC50 at 24 h [3]?
Answer: > 100 µM

Question: And the IC50 at 24 h [4]?
Answer: > 100 µM

Question: And the IC50 at 24 h [5]?
Answer: > 100 µM

Question: For YKEATSTFTNITYRGT-NH2 [BBBpS_8], which IC50 at 24 h [1] is on record?
Answer: > 100 µM

Question: What about the IC50 at 24 h [2] of the same molecule?
Answer: > 100 µM

Question: And the IC50 at 24 h [3]?
Answer: > 100 µM

Question: What about the IC50 at 24 h [4] of the same molecule?
Answer: > 100 µM

Question: What about the IC50 at 24 h [5] of the same molecule?
Answer: > 100 µM

Question: With CC[C@H](C)[C@H](NC(=O)CNC(=O)[C@H](CCCNC(=N)N)NC(=O)[C@H](Cc1ccc(O)cc1)NC(=O)[C@H](CS)NC(=O)[C@@H](NC(=O)[C@H](CCCNC(=N)N)NC(=O)[C@H](Cc1ccccc1)NC(=O)[C@H](CS)NC(=O)[C@H](Cc1c[nH]c2ccccc12)NC(=O)[C@H](CCCCN)NC(=O)CCC(C(=O)O)N1CCN(CC(=O)O)CCN(CC(=O)O)CC1)C(C)C)C(=O)N[C@@H](CS)C(=O)N[C@@H](Cc1ccc(O)cc1)C(=O)N[C@@H](CCCNC(=N)N)C(=O)N[C@@H](CCCNC(=N)N)C(=O)N[C@@H](CS)C(=O)N[C@@H](CCCNC(=N)N)C(N)=O (stereo partly drawn) [67Ga-non-BBBpS_2, metal not drawn] ({NODAGA}-KWCFRVCYRGICYRRCR-NH2) as the molecule, how does the tissue uptake at 1 h ([6]; blood, 1 h post injection, CD1 female mice, 100 µL of 25 µM 67Ga-peptide, γ counter, read-out: Tissue distribution, Blood) read?
Answer: 0.9 ± 0.6 %ID/g

Question: And the tissue uptake at 2 min ([6]; bone, CD1 mice, read-out: Tissue distribution, Bone)?
Answer: 3.7 ± 0.5 %ID/g

Question: And the tissue uptake at 1 h ([6]; bone, 1 h post injection, CD1 mice, read-out: Tissue distribution, Bone)?
Answer: 1.6 ± 0.1 %ID/g

Question: And the tissue uptake at 1 h ([6]; brain without perfusion, 1 h post injection, CD1 female mice, γ counter, read-out: Tissue distribution, Brain (brain uptake))?
Answer: 0.13 ± 0.03 %ID/g

Question: And the tissue uptake at 2 min ([6]; heart, CD1 mice, read-out: Tissue distribution, Heart)?
Answer: 6 ± 0.8 %ID/g

Question: What about the tissue uptake at 1 h ([6]; heart, 1 h post injection, CD1 mice, read-out: Tissue distribution, Heart) of the same molecule?
Answer: 1.7 ± 0.1 %ID/g

Question: And the tissue uptake at 2 min ([6]; intestine, CD1 mice, read-out: Tissue distribution, Intestine)?
Answer: 2.7 ± 0.7 %ID/g

Question: And the tissue uptake at 1 h ([6]; intestine, 1 h post injection, CD1 mice, read-out: Tissue distribution, Intestine)?
Answer: 1.6 ± 0.5 %ID/g

Question: And the tissue uptake at 2 min ([6]; kidney, CD1 mice, read-out: Tissue distribution, Kidney)?
Answer: 19.9 ± 0.4 %ID/g

Question: And the tissue uptake at 1 h ([6]; kidney, 1 h post injection, CD1 mice, read-out: Tissue distribution, Kidney)?
Answer: 5.4 ± 0.8 %ID/g

Question: And the tissue uptake at 2 min ([6]; liver, CD1 mice, read-out: Tissue distribution, Liver)?
Answer: 19.8 ± 0.7 %ID/g

Question: What about the tissue uptake at 1 h ([6]; liver, 1 h post injection, CD1 mice, read-out: Tissue distribution, Liver) of the same molecule?
Answer: 22.8 ± 10.1 %ID/g

Question: What about the tissue uptake at 2 min ([6]; lung, CD1 mice, read-out: Tissue distribution, Lung) of the same molecule?
Answer: 7.6 ± 1.5 %ID/g

Question: What about the tissue uptake at 1 h ([6]; lung, 1 h post injection, CD1 mice, read-out: Tissue distribution, Lung) of the same molecule?
Answer: 2.4 ± 0.7 %ID/g

Question: And the tissue uptake at 2 min ([6]; muscle, CD1 mice, read-out: Tissue distribution, Muscle)?
Answer: 1.8 ± 0.5 %ID/g

Question: And the tissue uptake at 1 h ([6]; muscle, 1 h post injection, CD1 mice, read-out: Tissue distribution, Muscle)?
Answer: 1.2 ± 0.4 %ID/g

Question: And the tissue uptake at 2 min ([6]; spleen, CD1 mice, read-out: Tissue distribution, Spleen)?
Answer: 5.6 ± 0.4 %ID/g

Question: What about the tissue uptake at 1 h ([6]; spleen, 1 h post injection, CD1 mice, read-out: Tissue distribution, Spleen) of the same molecule?
Answer: 3.7 ± 1.8 %ID/g

Question: What about the tissue uptake at 2 min ([6]; stomach, CD1 mice, read-out: Tissue distribution, Stomach) of the same molecule?
Answer: 2.1 ± 0.6 %ID/g

Question: What about the tissue uptake at 1 h ([6]; stomach, 1 h post injection, CD1 mice, read-out: Tissue distribution, Stomach) of the same molecule?
Answer: 1.7 ± 0.6 %ID/g

Question: What about the excretion (% injected dose) ([6]; mouse, 1 h post injection, difference between radioactivity injected and in the euthanized animal, CD1 mice) of the same molecule?
Answer: 13.5 ± 5.1 %ID

Question: And the “HPLC tR” value [7]?
Answer: 12.99 min

Question: Which IC50 at 24 h [1] does the source give for HIQLSPFSQSWR-NH2 [BBBpS_5] here?
Answer: > 100 µM

Question: What about the IC50 at 24 h [2] of the same molecule?
Answer: > 100 µM

Question: And the IC50 at 24 h [3]?
Answer: > 100 µM

Question: And the IC50 at 24 h [4]?
Answer: > 100 µM

Question: And the IC50 at 24 h [5]?
Answer: > 100 µM

Question: Which results are given for LKTLTETLKELTKTLTEL-NH2 [BBBpS_7]?
Answer: IC50 at 24 h [1]: > 100 µM; IC50 at 24 h [2]: > 100 µM; IC50 at 24 h [3]: > 100 µM; IC50 at 24 h [4]: > 100 µM; IC50 at 24 h [5]: > 100 µM

Question: For CSCC[C@H](NC(=O)[C@H](CC(C)C)NC(=O)CNC(=O)[C@H](Cc1ccccc1)NC(=O)[C@H](Cc1ccccc1)NC(=O)[C@H](CCC(N)=O)NC(=O)[C@H](CCC(N)=O)NC(=O)[C@@H]1CCCN1C(=O)[C@H](CCCCN)NC(=O)[C@@H]1CCCN1C(=O)[C@@H](N)CCCN=C(N)N)C(N)=O [BBBpS_10], which IC50 at 24 h [1] is on record?
Answer: > 100 µM

Question: What about the IC50 at 24 h [2] of the same molecule?
Answer: > 100 µM

Question: And the IC50 at 24 h [3]?
Answer: > 100 µM

Question: What about the IC50 at 24 h [4] of the same molecule?
Answer: > 100 µM

Question: What about the IC50 at 24 h [5] of the same molecule?
Answer: > 100 µM

Question: What does the source list for YTQDFNKFHTFPQTAIGVGAP-NH2 [BBBpS_6]?
Answer: IC50 at 24 h [1]: > 100 µM; IC50 at 24 h [2]: > 100 µM; IC50 at 24 h [3]: > 100 µM; IC50 at 24 h [4]: > 100 µM; IC50 at 24 h [5]: > 100 µM

Question: What does the source list for YDEEGGGE-NH2 [non-BBBpS_3]?
Answer: IC50 at 24 h [1]: > 100 µM; IC50 at 24 h [2]: > 100 µM; IC50 at 24 h [3]: > 100 µM; IC50 at 24 h [4]: > 100 µM; IC50 at 24 h [5]: > 100 µM

Question: With KYKGAIIGNIK-NH2 [BBBpS_1] as the molecule, how does the IC50 at 24 h [1] read?
Answer: > 100 µM

Question: What about the IC50 at 24 h [2] of the same molecule?
Answer: > 100 µM

Question: And the IC50 at 24 h [3]?
Answer: > 100 µM

Question: What about the IC50 at 24 h [4] of the same molecule?
Answer: > 100 µM

Question: And the IC50 at 24 h [5]?
Answer: > 100 µM
